Source: patent US9732087B2, “Diamino-pyridine, pyrimidine, and pyridazine modulators of the histamine H4 receptor” (JANSSEN PHARMACEUTICA NV, priority 2008, dated 2017)
Counter-ions that a name gives are not always drawn. Like-named read-outs stand apart in the source and are kept apart here.

Target: human H4 receptor (Homo sapiens (Human), UniProt Q9H3N8)
Test: Binding assay on recombinant human histamine H4 receptor ([3H]histamine competition, SK-N-MC cell membranes)
Details: [3H]histamine 10 nM, average of results
How it was run: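 Membranes from SK-N-MC cells stably or transiently transfected with human H4 receptor, prepared by homogenization and 30,000 g centrifugation in Tris/EDTA. Bound [3H]histamine separated by rapid filtration on PEI-treated GF/C filters, washed with ice-cold Tris/EDTA, counted by scintillation. '>' values denote highest concentration tested.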

[1] = membranes harvested with cell harvester, read-out: Cell Harvester Ki

Row | Compound | Ki [1] | Ki (membranes harvested with 96 well Brandel system, read-out: Brandel Ki)
1 | N[C@@H]1CCN(c2ccnc(NC3CC4CCC3C4)n2)C1 (stereo partly drawn) [Example 43, 4-[(3R)-3-Aminopyrrolidin-1-yl]-N-[bicyclo[2.2.1]hept-2-yl]pyrimidin-2-amine] | 3.3 nM | 
2 | COCCNc1cc(N2CCNCC2)ccn1 [Example 37, N-(2-Methoxyethyl)-4-piperazin-1-ylpyridin-2-amine] | 247 nM | 
3 | c1cc(N2CCNCC2)cc(NCC2CCCO2)n1 (stereo not drawn) [Example 39, 4-Piperazin-1-yl-N-(tetrahydrofuran-2-ylmethyl)pyridin-2-amine] | 554 nM | 
4 | CC(C)(CO)CNc1nccc(N2CCNCC2)n1 [Example 166, 2,2-Dimethyl-3-[(4-piperazin-1-ylpyrimidin-2-yl)amino]propan-1-ol] | > 10000 nM | 
5 | CN[C@H]1CCN(c2ccnc(NCc3ccccn3)n2)C1 [Example 200, 4-[(3S)-3-(Methylamino)pyrrolidin-1-yl]-N-(pyridin-2-ylmethyl)pyrimidin-2-amine] | 860 nM | 
6 | CSCCNc1nccc(N2CCNCC2)n1 [Example 124, N-[2-(Methylsulfanyl)ethyl]-4-piperazin-1-ylpyrimidin-2-amine] | 155 nM | 
7 | c1cc(N2C[C@H]3CCN[C@H]3C2)cc(NCC2CCCCC2)n1 [Example 256] | 617 nM | 
8 | c1nnc(NCC2CCCC2)cc1N1C[C@H]2CCN[C@H]2C1 [Example 360, N-(Cyclopentylmethyl)-5-[(3aR,6aR)-hexahydropyrrolo[3,4-b]pyrrol-5(1H)-yl]pyridazin-3-amine] | 1170 nM | 
9 | NC1CN(c2cnnc(NC3CC3)c2)C1 [Example 333, 5-(3-Aminoazetidin-1-yl)-N-cyclopropylpyridazin-3-amine] | > 10000 nM | 
10 | CNC1CN(c2ccnc(NC3CC3)c2)C1 [Example 281, N-Cyclopropyl-4-[3-(methylamino)azetidin-1-yl]pyridin-2-amine] | 21.3 nM | 
11 | N[C@H]1CCN(c2ccnc(NCc3ccc(F)cc3)c2)C1 [Example 263] | 3090 nM | 
12 | CN[C@@H]1CCN(c2cnnc(NC3CC3)c2)C1 [Example 377, N-Cyclopropyl-5-[(3R)-3-(methylamino)pyrrolidin-1-yl]pyridazin-3-amine] | 699 nM | 
13 | CNC1CCN(c2cnnc(NCc3ccccn3)c2)C1 (stereo in doubt) [Example 402, 5-[(3S)-3-(Methylamino)pyrrolidin-1-yl]-N-(pyridin-2-ylmethyl)pyridazin-3-amine] | > 10000 nM | 
14 | CN[C@@H]1CCN(c2cnnc(N[C@H](C)C3CCCCC3)c2)C1 [Example 378, N-[(1R)-1-Cyclohexylethyl]-5-[(3R)-3-(methylamino)pyrrolidin-1yl]pyridazin-3-amine] | 6.16 nM | 
15 | N[C@@H]1CCN(c2ccnc(NC3CC4CCC3C4)c2)C1 (stereo partly drawn) [Example 270, 4-[(3R)-3-Aminopyrrolidin-1-yl]-N-bicyclo[2.2.1]hept-2-ylpyridin-2-amine] | 3.53 nM | 
16 | CN[C@H]1CCN(c2ccnc(NC34CC5CC(CC(C5)C3)C4)c2)C1 [Example 210, Adamantan-1-yl-[4-(3S)-(3-methylamino-pyrrolidin-1-yl)-pyridin-2-yl]-amine] | 296 nM | 
17 | CN[C@H]1CCN(c2cnnc(N[C@H](C)C3CCCCC3)c2)C1 [Example 373, N-[(1R)-1-Cyclohexylethyl]-5-[(3S)-3-(methylamino)pyrrolidin-1-yl]pyridazin-3-amine] | 143 nM | 
18 | CC(C)Nc1nccc(N2CC[C@@H](N)C2)n1 [Example 52, 4-[(3R)-3-Aminopyrrolidin-1-yl]-N-(1-methylethyl)pyrimidin-2-amine] | 33.4 nM | 
19 | N[C@@H]1CCN(c2cnnc(NCc3ccccc3)c2)C1 [Example 340, 5-[(3R)-3-Aminopyrrolidin-1-yl]-N-benzylpyridazin-3-amine] | 2030 nM | 
20 | CN[C@H]1CCN(c2cnnc(NCC3CCCC3)c2)C1 [Example 382, N-(Cyclopentylmethyl)-5-[(3S)-3-(methylamino)pyrrolidin-1-yl]pyridazin-3-amine] | 138 nM | 
21 | CNC1CN(c2cnnc(NCc3ccccn3)c2)C1 [Example 352, 5-[3-(Methylamino)azetidin-1-yl]-N-(pyridin-2-ylmethyl)pyridazin-3-amine] | > 10000 nM | 
22 | CN[C@H]1CCN(c2cnnc(NCC3CCCCC3)c2)C1 [Example 396, N-(Cyclohexylmethyl)-5-[(3S)-3-(methylamino)pyrrolidin-1-yl]pyridazin-3-amine] | 380 nM | 
23 | OCCCNc1cc(N2CCNCC2)cnn1 [Example 314, 3-[(5-Piperazin-1-ylpyridazin-3-yl)amino]propan-1-ol] | > 10000 nM | 
24 | c1cc(N2C[C@H]3CCN[C@H]3C2)nc(NC2CCCC2)n1 [Example 139, N-Cyclopentyl-4-[(3aR,6aR)-hexahydropyrrolo[3,4-b]pyrrol-5(1H)-yl]pyrimidin-2-amine] | 7.96 nM | 
25 | CN[C@H]1CCN(c2ccnc(NCC3CCCCC3)c2)C1 [Example 225, N-(Cyclohexylmethyl)-4-[(3S)-3-(methylamino)pyrrolidin-1-yl]pyridin-2-amine] | 75.1 nM | 
26 | OCCCNc1cc(N2C[C@H]3CCN[C@H]3C2)cnn1 [Example 305, 3-({5-[(3aR,6aR)-Hexahydropyrrolo[3,4-b]pyrrol-5(1H)-yl]pyridazin-3-yl}amino)propan-1-ol] | 1060 nM | 
27 | CN1CCN(c2ccnc(NCCCO)c2)CC1 [Example 216, 3-{[4-(4-Methylpiperazin-1-yl)pyridin-2-yl]amino}propan-1-ol] | 1430 nM | 
28 | c1cc(N2C[C@H]3CCN[C@H]3C2)cc(NC2CCCC2)n1 [Example 262, N-Cyclopentyl-4-[(3aR,6aR)-hexahydropyrrolo[3,4-b]pyrrol-5(1H)-yl]pyridin-2-amine] | 22.1 nM | 
29 | c1cc(N2C[C@H]3CCN[C@H]3C2)nc(NCC2CCCCC2)n1 [Example 107, N-(Cyclohexylmethyl)-4-[(3aR,6aR)-hexahydropyrrolo[3,4-b]pyrrol-5(1H)-yl]pyrimidin-2-amine] | 69.9 nM | 
30 | CN[C@H]1CCN(c2ccnc(NCCCO)n2)C1 [Example 152, 3-({4-[(3S)-3-(Methylamino)pyrrolidin-1-yl]pyrimidin-2-yl}amino)propan-1-ol] | 2300 nM | 

Now from value to molecule:

Row | Ki [1] | Ki (membranes harvested with 96 well Brandel system, read-out: Brandel Ki) | Compound
31 | > 10000 nM |  | N[C@@H]1CCN(c2cnnc(NCCCO)c2)C1 [Example 313, 3-({5-[(3R)-3-Aminopyrrolidin-1-yl]pyridazin-3-yl}amino)propan-1-ol]
32 | 377 nM |  | C[C@H]1[C@@H](Nc2nccc(N3CCNCC3)n2)C[C@@H]2C[C@H]1C2(C)C (stereo in doubt) [Example 71, (4-Piperazin-1-yl-pyrimidin-2-yl)-(2,6,6-trimethyl-bicyclo[3.1.1]hept-3-yl)-amine]
33 | 19.8 nM |  | CNC1CN(c2ccnc(N[C@H]3C[C@H]4CC[C@]3(C)C4(C)C)n2)C1 [Example 126, 4-[3-(Methylamino)azetidin-1-yl]-N-[(1R,2S,4R)-1,7,7-trimethylbicyclo[2.2.1]hept-2-yl]pyrimidin-2-amine]
34 | 0.5 nM | 1 nM | CN[C@@H]1CCN(c2ccnc(NC3CC4CCC3C4)c2)C1 (stereo partly drawn) [Example 1, Bicyclo[2.2.1]hept-2-yl[4-((3R)-3-methylamino-pyrrolidin-1-yl)-pyridin-2-yl]amine dihydrochloride]
35 | 508 nM |  | N[C@@H]1CCN(c2cnnc(NC3CCCCC3)c2)C1 [Example 365, 5-[(3R)-3-Aminopyrrolidin-1-yl]-N-cyclohexylpyridazin-3-amine]
36 | 34.1 nM |  | N[C@H]1CCN(c2ccnc(NC3CC4CCC3C4)n2)C1 (stereo partly drawn) [Example 146, 4-[(3S)-3-Aminopyrrolidin-1-yl]-N-bicyclo[2.2.1]hept-2-ylpyrimidin-2-amine]
37 | 723 nM |  | CN1CCN(c2ccnc(NC3CCOCC3)c2)CC1 [Example 223, 4-(4-Methylpiperazin-1-yl)-N-(tetrahydro-2H-pyran-4-yl)pyridin-2-amine]
38 | 3490 nM |  | CN[C@H]1CCN(c2ccnc(NCC(C)(C)CO)n2)C1 [Example 158, 2,2-Dimethyl-3-({4-[(3S)-3-(methylamino)pyrrolidin-1-yl]pyrimidin-2-yl}amino)propan-1-ol]
39 | 79.4 nM |  | CN[C@H]1CCN(c2ccnc(NCC34CC5CC(CC(C5)C3)C4)c2)C1 [Example 251, Adamantan-1-ylmethyl-[4-(3S)-(3-methylamino-pyrrolidin-1-yl)-pyridin-2-yl]amine]
40 | 228 nM |  | CN[C@H]1CCN(c2ccnc(NCCc3ccccc3)c2)C1 [Example 245, 4-[(3S)-3-(Methylamino)pyrrolidin-1-yl]-N-(2-phenylethyl)pyridin-2-amine]
41 | 168 nM |  | C[C@@H](Nc1nccc(N2CC[C@@H](N)C2)n1)C1CCCCC1 [Example 103, 4-[(3R)-3-Aminopyrrolidin-1-yl]-N-[(1R)-1-cyclohexylethyl]pyrimidin-2-amine]
42 | 13.7 nM |  | CN[C@@H]1CCN(c2ccnc(NCc3ccc(F)cc3)c2)C1 [Example 7, N-(4-Fluorobenzyl)-4-[(3R)-3-(methylamino)pyrrolidin-1-yl]pyridin-2-amine dihydrochloride]
43 | 116 nM |  | CN[C@@H]1CCN(c2ccnc(N[C@H](C)c3ccccc3)n2)C1 [Example 180, 4-[(3R)-3-(Methylamino)pyrrolidin-1-yl]-N-[(1R)-1-phenylethyl]pyrimidin-2-amine]
44 | 1460 nM |  | CC(C)(CO)CNc1nccc(N2CC(N)C2)n1 [Example 151, 3-{[4-(3-Aminoazetidin-1-yl)pyrimidin-2-yl]amino}-2,2-dimethylpropan-1-ol]
45 | 1.68 nM |  | CN[C@@H]1CCN(c2ccnc(NCC3CCCCC3)c2)C1 [Example 211, N-(Cyclohexylmethyl)-4-[(3R)-3-(methylamino)pyrrolidin-1-yl]pyridin-2-amine]
46 | 310 nM |  | NC1CCN(c2cnnc(NCC3CC4CCC3C4)c2)C1 (stereo in doubt) [Example 304, 5-[(3S)-3-Aminopyrrolidin-1-yl]-N-(bicyclo[2.2.1]hept-2-ylmethyl)pyridazin-3-amine]
47 | 31.8 nM |  | CN[C@@H]1CCN(c2ccnc(NCCOC)c2)C1 [Example 42, N-(2-Methoxyethyl)-4-[(3R)-3-(methylamino)pyrrolidin-1-yl]pyridin-2-amine]
